Results published in ChEMBL document CHEMBL1137284, “Farnesoid X-activated receptor antagonists from a marine sponge Spongia sp” (Bioorg Med Chem Lett, 2006).

How the values were obtained:
[1] = Cytotoxicity against CV1 cells transfected with human FXR by MTT method; format: cell-based; settings: CV-1
Bile acid receptor = target: T1, Bile acid receptor (Homo sapiens, UniProt Q96RI1); experiment: Antagonist activity against FXR assessed as transactivation of luciferase reporter gene in CV1 cells; format: functional, cell-based, CV-1
T1 sequence (Q96RI1 whole entry): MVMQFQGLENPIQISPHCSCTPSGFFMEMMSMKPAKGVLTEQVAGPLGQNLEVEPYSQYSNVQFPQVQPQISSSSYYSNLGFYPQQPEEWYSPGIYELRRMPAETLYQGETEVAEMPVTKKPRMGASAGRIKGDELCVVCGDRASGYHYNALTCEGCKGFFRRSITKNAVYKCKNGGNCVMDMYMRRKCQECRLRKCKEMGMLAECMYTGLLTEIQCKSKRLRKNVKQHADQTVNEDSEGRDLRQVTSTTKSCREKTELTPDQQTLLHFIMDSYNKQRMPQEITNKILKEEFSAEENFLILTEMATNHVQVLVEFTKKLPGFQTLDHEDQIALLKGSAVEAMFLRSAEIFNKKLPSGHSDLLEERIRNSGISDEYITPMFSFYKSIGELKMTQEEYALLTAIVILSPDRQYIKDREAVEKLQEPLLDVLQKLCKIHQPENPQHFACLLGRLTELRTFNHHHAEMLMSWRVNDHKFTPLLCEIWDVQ

| SMILES | IC50 [1] [µM] | IC50 (Bile acid receptor) [µM] |
| --- | --- | --- |
| CC(=O)OC[C@@]12CCC3C(C)(C)CCC[C@]3(C)C1C[C@@H](O)[C@@]1(C)C2CC=C2CO[C@@H](O)[C@@H]21 (stereo not given in full) | 29.2 | 25.3 |
| CO[C@@H]1OCC2=CCC3[C@]4(C)CCC5C(C)(C)CCC[C@]5(C)C4C[C@@H](O)[C@]3(C)[C@H]21 (stereo not given in full) | 86.9 | 24.8 |
| CC1(C)CCC[C@@]2(C)C1CC[C@]1(CO)C2C[C@@H](O)[C@@]2(C)C1CC=C1CO[C@@H](O)[C@@H]12 (stereo not given in full) | > 100 | 64.5 |
| CC(=O)OC[C@@]12CCC3C(C)(C)CCC[C@]3(C)C1C[C@@H](OC(C)=O)[C@@]1(C)C2CC=C2CO[C@@H](O)[C@@H]21 (stereo not given in full) | 32.7 | 8.1 |
| CC(=O)O[C@@H]1CC2[C@@]3(C)CCCC(C)(C)C3CC[C@@]2(C)C2CC=C3CO[C@@H](O)[C@@H]3[C@]21C (stereo not given in full) | 98.5 | 81.1 |
